Test results: PMC3368886, “ATPase Cycle and DNA Unwinding Kinetics of RecG Helicase” (PLoS ONE, 2012)

Experiments:
RecG [1] = biological target: T1, RecG (Thermotoga maritima, UniProt Q9WY48); assay: ATP hydrolysis during unwinding (phosphate biosensor, heparin trap); assay type: biochemical; settings: 200 nM 4-strand complementary junction, 10 nM RecG, 200 µM ATP
T1 construct: made in house
T1 sequence (Q9WY48 1-780): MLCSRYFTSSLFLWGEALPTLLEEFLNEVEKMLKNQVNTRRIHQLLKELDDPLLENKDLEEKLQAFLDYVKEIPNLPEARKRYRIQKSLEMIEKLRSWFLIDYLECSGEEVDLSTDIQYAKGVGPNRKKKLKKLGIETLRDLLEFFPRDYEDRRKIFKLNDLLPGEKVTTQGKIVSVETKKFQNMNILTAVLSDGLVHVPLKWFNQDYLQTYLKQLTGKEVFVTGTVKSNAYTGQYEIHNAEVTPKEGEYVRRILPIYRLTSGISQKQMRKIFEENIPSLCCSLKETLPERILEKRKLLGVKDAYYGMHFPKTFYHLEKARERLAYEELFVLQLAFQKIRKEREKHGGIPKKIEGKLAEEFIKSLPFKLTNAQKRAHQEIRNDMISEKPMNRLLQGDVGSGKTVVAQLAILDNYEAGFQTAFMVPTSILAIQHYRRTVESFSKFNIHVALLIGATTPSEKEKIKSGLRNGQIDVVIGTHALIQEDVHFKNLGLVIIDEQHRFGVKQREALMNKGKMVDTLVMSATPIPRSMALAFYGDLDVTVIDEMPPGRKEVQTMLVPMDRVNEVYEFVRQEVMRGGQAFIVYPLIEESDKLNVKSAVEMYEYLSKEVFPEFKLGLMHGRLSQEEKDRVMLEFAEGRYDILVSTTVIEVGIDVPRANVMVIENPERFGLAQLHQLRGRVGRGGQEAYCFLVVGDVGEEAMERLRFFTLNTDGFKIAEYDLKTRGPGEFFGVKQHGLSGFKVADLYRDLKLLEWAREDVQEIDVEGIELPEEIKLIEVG
Experimental: The rate of ATP hydrolysis and total ATP usage during unwinding were measured using the phosphate biosensor (Figure 8), following rapid mixing of ATP with the RecG⋅DNA complex. […] Heparin is a potent inhibitor of many helicases, mimicking the DNA substrate and binding tightly to the enzyme, once the latter dissociates from the DNA, and so prevents rebinding of the helicase to fresh DNA substrates. The initial, rapid phase, which represents unwinding of the first DNA junction, was unaffected by the presence of heparin. […] RecG will continue to hydrolyze ATP while bound to the DNA substrate.
Figure 8 ATP hydrolysis during unwinding 4-strand complementary junctions. Junctions of varying arm lengths (shown in b.p.) were used to measure the rate of ATP hydrolysis during unwinding. RecG was pre-incubated with junction and the reactions were initiated by rapid mixing with ATP and heparin. […]
The ATPase measurement was repeated with different lengths of lagging and leading strands, as used in the unwinding measurements, in the presence of heparin (Figure 8 main panel). […] The ATPase rate measured here is similar to the steady-state and hydrolysis rate constants measured in the above sections, supporting the idea that the ATP hydrolysis reaction is not greatly affected by the type of junction.

RecG [2] = biological target: T1, RecG; assay: Titrations of RecG into fluorescent nucleotides in the absence of DNA; assay type: binding
Experimental: The two phases of this fluorescence increase with excess RecG⋅DNA would therefore relate to formation of bound mantATP (1.5-fold intensity increase relative to free nucleotide) and bound mantADP (4.9-fold). This interpretation was supported by titrations of RecG into the fluorescent nucleotides in the absence of DNA.
Steady-state fluorescence was measured using a Cary Eclipse fluorimeter (Varian) with a xenon light source. Absorbance spectroscopy was performed using a Beckman DU640 spectrophotometer.

RecG [3] = biological target: T1, RecG; assay: Double-mix stopped-flow: RecG⋅mantATP then mixed with DNA; assay type: biochemical; settings: RecG + mantATP aged 1 s, then mixed with DNA junction (A40:B40)
Experimental: Figure 4 Kinetic measurement of mantATP with excess of RecG and DNA: binding, hydrolysis and Pi release. The concentrations for all experiments were 0.5 µM mantATP, 2.5 µM RecG, 5 µM DNA (A40:B40) and 10 µM MDCC-PBP (for Pi measurement). All measurements were carried out at 20°C in the buffer described in Materials and Methods. (A) Time course of mant fluorescence (solid line), mantADP formation (circles) and Pi release (dashed line), measured as described in materials and methods. […] (B) Simulation of these time courses, based upon a global model for a single turnover of mantATP as described in the text. (C) The time course of mant fluorescence upon mixing 0.5 µM mantATP and 2.5 µM RecG with 5 µM DNA junction (A40:B40) after a first mixing of 5 µM RecG and 1 µM mantATP and aging for 1 s.
As the cleavage step is so slow in the absence of DNA, a double-mix, stopped-flow experiment was performed in order to see if the biphasic increase in mant fluorescence could be separated into the individual processes of mantATP binding and hydrolysis. An excess of RecG was mixed with mantATP and this mix aged for 1 s to allow binding but not hydrolysis. This solution was then mixed with DNA. […] This rate was similar to that of the slower phase, measured above, consistent with this phase being due to DNA-induced hydrolysis.

Nc1ncnc2c1ncn2[C@@H]1O[C@H](COP(=O)(O)OP(=O)(O)OP(=O)(O)O)[C@@H](O)[C@H]1O [ATP]
rate of ATP hydrolysis during unwinding phase (RecG [1]): 5.8 s⁻¹

CNc1ccccc1C(=O)O[C@H]1[C@@H](O)[C@H](n2cnc3c(N)ncnc32)O[C@@H]1COP(=O)(O)OP(=O)(O)OP(=O)(O)O [mantATP, 2′(3′)-O-(N-methylanthraniloyl)ATP]
increase in fluorescence on titration with RecG (RecG [2]): 1.3 fold
rate constant of single exponential increase in mant fluorescence (RecG [3]): 0.3 (±0.04) s^−1
